For one test, the target named is T1, GST-JAK2(808-1132) (Homo sapiens, UniProt O60674).
T1 construct: GST-JAK2(808-1132); purchased Invitrogen (Carlsbad, USA) #4288
The test is described as follows: JAK2 kinase assay (Caliper mobility shift, LabChip 3000). In kind it is biochemical. The procedure, abridged:
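Recombinant GST-JAK2(808-1132) kinase domain with FITC-labelled JAK3tide peptide substrate and ATP; 60 min at 30 °C, EDTA stop. Substrate/product ratio read by microfluidic mobility shift; compounds at 8 final concentrations, 10 to 0.003 μM.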

The subject of test [1] is JAK2-dependent nuclear translocation of STAT5-GFP in U-2 OS osteosarcoma cells. Put plainly: STAT5 nuclear translocation assay (Cellomics), rhEpo stimulated U-2 OS STAT5-GFP cells. It counts as cell-based. As to conditions: Homo sapiens, U2OS; STAT5 translocation pathway. The essentials: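 U-2 OS cells stably expressing STAT5a-GFP and EpoR pre-treated with compound (final 10 μM to 0.003 μM, 0.1% DMSO) for 30 min at 37° C., then stimulated 1 h with 5 U/ml rhEpo. Nuclear-cytoplasmic GFP differential quantified by automated imaging (≥1000 cells/well, Hoechst nuclear mask). IC50 from % translocation normalized to untreated and DMSO-stimulated controls.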

The source of these data is patent US8420657B2 (Novartis AG, priority 2008, dated 2013).

T1 sequence (O60674 808-1132): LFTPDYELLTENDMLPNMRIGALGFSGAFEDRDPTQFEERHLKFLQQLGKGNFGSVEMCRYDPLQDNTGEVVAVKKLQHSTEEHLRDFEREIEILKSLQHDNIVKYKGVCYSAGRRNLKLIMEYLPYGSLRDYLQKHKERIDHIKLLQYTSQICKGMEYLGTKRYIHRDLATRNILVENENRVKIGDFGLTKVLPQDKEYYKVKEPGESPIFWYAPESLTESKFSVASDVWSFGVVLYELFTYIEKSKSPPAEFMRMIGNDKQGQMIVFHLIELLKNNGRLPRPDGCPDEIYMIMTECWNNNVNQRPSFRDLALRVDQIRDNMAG

Take `C[C@@H]1CN(Cc2ccc(Nc3ncc4ccn(-c5cc(F)c(CN6CCOCC6)c(F)c5)c4n3)c(F)c2)C[C@H](C)N1` [Example 477, [7-(3,5-Difluoro-4-morpholin-4-ylmethyl-phenyl)-7H-pyrrolo[2,3-d]pyrimidin-2-yl]-[4-(cis-3,5-dimethyl-piperazin-1-ylmethyl)-2-fluoro-phenyl]-amine]: the figures for the IC50 (at GST-JAK2(808-1132); in test [1]) were 0.017 µM and 0.718 µM, respectively.

Regarding `Cc1ccc(Nc2ncc3ccn(-c4ccc(S(=O)(=O)NC(C)(C)C)cc4)c3n2)cc1CN1C[C@@H](C)N[C@@H](C)C1` [Example 387, N-tert-Butyl-4-{2-[3-(cis-3,5-dimethyl-piperazin-1-ylmethyl)-4-methyl-phenylamino]-pyrrolo[2,3-d]pyrimidin-7-yl}-benzenesulfonamide], the IC50 is 0.0096 µM on GST-JAK2(808-1132) and 0.0455 µM in test [1].

Turning to `Cc1cc(Nc2ncc3ccn(-c4cc(F)c(CN5CCOCC5)c(F)c4)c3n2)cc(C)c1OCCN1CCOCC1` [Example 433, [7-(3,5-Difluoro-4-morpholin-4-ylmethyl-phenyl)-7H-pyrrolo[2,3-d]pyrimidin-2-yl]-[3,5-dimethyl-4-(2-morpholin-4-yl-ethoxy)-phenyl]-amine], the values for the IC50 (on GST-JAK2(808-1132); in test [1]) were at most 0.003 µM and 0.0063 µM, respectively.

With `Fc1cc(-n2ccc3cnc(Nc4ccnc(OCCN5CCOCC5)c4)nc32)cc(F)c1CN1CCOCC1` [Example 352, [7-(3,5-Difluoro-4-morpholin-4-yl methyl-phenyl)-7H-pyrrolo[2,3-d]pyrimidin-2-yl]-[2-(2-morpholin-4-yl-ethoxy)-pyridin-4-yl]-amine], the figures for the IC50 (on GST-JAK2(808-1132); in test [1]) were at most 0.003 µM and 0.0221 µM, respectively.

For `Cc1ccc(Nc2ncc3ccn(-c4cc(F)c(CN5CCS(=O)(=O)CC5)c(F)c4)c3n2)cc1CN1CCNCC1` [Example 428, {7-[4-(1,1-Dioxido-thiomorpholin-4-ylmethyl)-3,5-difluoro-phenyl]-7H-pyrrolo[2,3-d]pyrimidin-2-yl}-(4-methyl-3-piperazin-1-ylmethyl-phenyl)-amine], the figures for the half-inhibitory concentration (IC50) (on GST-JAK2(808-1132); in test [1]) were at most 0.003 µM and 0.0107 µM, respectively.

Regarding `Cc1ccc(Nc2ncc3ccn(-c4cc(F)c(CN5CCOCC5)c(F)c4)c3n2)cc1CN1[C@H]2CC[C@@H]1CC2` [Example 436, [3-(7-Aza-bicyclo[2.2.1]hept-7-ylmethyl)-4-methyl-phenyl]-[7-(3,5-difluoro-4-morpholin-4-ylmethyl-phenyl)-7H-pyrrolo[2,3-d]pyrimidin-2-yl]-amine], the IC50 at GST-JAK2(808-1132) was at most 0.003 µM; in test [1], 0.0061 µM.

As for `Fc1cc(-n2ccc3cnc(Nc4ccc(N5CCN(C6CC6)CC5)nc4)nc32)cc(F)c1CN1CCOCC1` [Example 457, [6-(4-Cyclopropyl-piperazin-1-yl)-pyridin-3-yl]-[7-(3,5-difluoro-4-morpholin-4-ylmethyl-phenyl)-7H-pyrrolo[2,3-d]pyrimidin-2-yl]-amine], the values for the IC50 (on GST-JAK2(808-1132); in test [1]) were at most 0.003 µM and 0.021 µM, respectively.

Consider `Cc1cc(Nc2ncc3ccn(-c4cc(F)c(CN5CCOCC5=O)c(F)c4)c3n2)cnc1N1C[C@@H](C)N[C@@H](C)C1` [Example 483, 4-(4-{2-[6-(cis-3,5-Dimethyl-piperazin-1-yl)-5-methyl-pyridin-3-ylamino]-pyrrolo[2,3-d]pyrimidin-7-yl}-2,6-difluoro-benzyl)-morpholin-3-one], for which the values for the IC50 (on GST-JAK2(808-1132); in test [1]) were at most 0.003 µM and 0.0123 µM, respectively.

As for `Cc1ccc(Nc2ncc3ccn(-c4ccc(C(=O)N5CCOCC5)c(F)c4)c3n2)cc1CN1C[C@@H](C)N[C@@H](C)C1` [Example 367, (4-{2-[3-(cis-3,5-Dimethyl-piperazin-1-ylmethyl)-4-methyl-phenylamino]-pyrrolo[2,3-d]pyrimidin-7-yl}-2-fluoro-phenyl)-morpholin-4-yl-methanone], the IC50 on GST-JAK2(808-1132) was determined as 0.0084 µM; in test [1], 0.144 µM.

As to `C[C@@H]1CN(c2ccc(Nc3ncc4ccn(-c5ccc(S(N)(=O)=O)cc5)c4n3)cn2)C[C@H](C)N1` [Example 369, 4-{2-[6-(cis-3,5-Dimethyl-piperazin-1-yl)-pyridin-3-ylamino]-pyrrolo[2,3-d]pyrimidin-7-yl}-benzenesulfonamide], the IC50 was at most 0.003 µM at GST-JAK2(808-1132) and 0.057 µM in test [1].

Turning to `O=C(c1cccc(Nc2ncc3ccn(-c4cc(F)c(CN5CCOCC5)c(F)c4)c3n2)c1)N1CCN(C2CC2)CC1` [Example 459, (4-Cyclopropyl-piperazin-1-yl)-{3-[7-(3,5-difluoro-4-morpholin-4-ylmethyl-phenyl)-7H-pyrrolo[2,3-d]pyrimidin-2-ylamino]-phenyl}-methanone], the IC50 amounted to 0.0051 µM at GST-JAK2(808-1132) and 0.104 µM in test [1].

Regarding `COC1CCN(Cc2cc(Nc3ncc4ccn(-c5cc(F)c(CN6CCOCC6)c(F)c5)c4n3)ccc2C)C1` (racemic) [Example 417, [7-(3,5-Difluoro-4-morpholin-4-ylmethyl-phenyl)-7H-pyrrolo[2,3-d]pyrimidin-2-l]-[3-(3-methoxy-pyrrolidin-1-ylmethyl)-4-methyl-phenyl]-amine], the results for the IC50 (on GST-JAK2(808-1132); in test [1]) were at most 0.003 µM and 0.005 µM, respectively.

Take `O=C1CNCCN1Cc1cc(Nc2ncc3ccn(-c4cc(F)c(CN5CCOCC5)c(F)c4)c3n2)ccn1` [Example 409, 1-{4-[7-(3,5-Difluoro-4-morpholin-4-ylmethyl-phenyl)-7H-pyrrolo[2,3-d]pyrimidin-2-ylamino]-pyridin-2-ylmethyl}-piperazin-2-one]: the half-inhibitory concentration (IC50) on GST-JAK2(808-1132) was at most 0.003 µM; in test [1] it was 0.0816 µM.

`C[C@@H]1CN(c2ccc(Nc3ncc4ccn(-c5cc(F)c(CN6CCOC7(COC7)C6)c(F)c5)c4n3)cn2)C[C@H](C)N1` [Example 360, [6-(cis-3,5-Dimethyl-piperazin-1-yl)-pyridin-3-yl]-{7-[4-(2,5-dioxa-8-aza-spiro[3,5]non-8-ylmethyl)-3,5-difluoro-phenyl]-7H-pyrrolo[2,3-d]pyrimidin-2-yl}-amine]: the IC50 on GST-JAK2(808-1132) was 0.0033 µM; in test [1], 0.0072 µM.

With `OC1CCN(c2ccc(Nc3ncc4ccn(-c5cc(F)c(CN6CCOCC6)c(F)c5)c4n3)cn2)C1` (racemic) [Example 347, 1-{5-[7-(3,5-Difluoro-4-morpholin-4-ylmethyl-phenyl)-7H-pyrrolo[2,3-d]pyrimidin-2-ylamino]-pyridin-2-yl}-pyrrolidin-3-ol], the values for the IC50 (at GST-JAK2(808-1132); in test [1]) were at most 0.003 µM and 0.0133 µM, respectively.

For the compound `Cc1ccc(Nc2ncc3ccn(-c4ccc(C(=O)N5CCOCC5)c(F)c4)c3n2)cc1CN1CCOC2(COC2)C1` [Example 359, (4-{2-[3-(2,5-Dioxa-8-aza-spiro[3,5]non-8-ylmethyl)-4-methyl-phenylamino]-pyrrolo[2,3-d]pyrimidin-7-yl}-2-fluoro-phenyl)-morpholin-4-yl-methanone], the figures for the IC50 (on GST-JAK2(808-1132); in test [1]) were 0.0074 µM and 0.135 µM, respectively.

Take `COC1CCN(Cc2ccc(Nc3ncc4ccn(-c5cc(F)c(CN6CCOCC6)c(F)c5)c4n3)cc2)C1` (racemic) [Example 506, [7-(3,5-Difluoro-4-morpholin-4-ylmethyl-phenyl)-7H-pyrrolo[2,3-d]pyrimidin-2-yl]-[4-(3-methoxy-pyrrolidin-1-ylmethyl)-phenyl]-amine]: the IC50 is at most 0.003 µM at GST-JAK2(808-1132) and 0.038 µM in test [1].

As for `C[C@@H]1CN(Cc2ccc(Nc3ncc4ccn(-c5ccc6c(c5)CCC(=O)N6)c4n3)cc2)C[C@H](C)N1` [Example 468, 6-{2-[4-(cis-3,5-Dimethyl-piperazin-1-ylmethyl)-phenylamino]-pyrrolo[2,3-d]pyrimidin-7-yl}-3,4-dihydro-1H-quinolin-2-one], the IC50 on GST-JAK2(808-1132) is at most 0.003 µM; in test [1], 0.014 µM.

The IC50 is the concentration needed to halve the response being measured.
